Here are results for 14 compounds from patent publication US20240116985A1, “STAPLED PEPTIDES AND METHODS THEREOF” (priority 2020, published 2024).

Data set [1] addresses T1, full-length beta-Catenin (Uniprot ID P35222) (Homo sapiens, UniProt P35222).
T1 construct: 10 nM full-length beta-Catenin (Uniprot ID P35222)
T1 sequence (P35222 1-781): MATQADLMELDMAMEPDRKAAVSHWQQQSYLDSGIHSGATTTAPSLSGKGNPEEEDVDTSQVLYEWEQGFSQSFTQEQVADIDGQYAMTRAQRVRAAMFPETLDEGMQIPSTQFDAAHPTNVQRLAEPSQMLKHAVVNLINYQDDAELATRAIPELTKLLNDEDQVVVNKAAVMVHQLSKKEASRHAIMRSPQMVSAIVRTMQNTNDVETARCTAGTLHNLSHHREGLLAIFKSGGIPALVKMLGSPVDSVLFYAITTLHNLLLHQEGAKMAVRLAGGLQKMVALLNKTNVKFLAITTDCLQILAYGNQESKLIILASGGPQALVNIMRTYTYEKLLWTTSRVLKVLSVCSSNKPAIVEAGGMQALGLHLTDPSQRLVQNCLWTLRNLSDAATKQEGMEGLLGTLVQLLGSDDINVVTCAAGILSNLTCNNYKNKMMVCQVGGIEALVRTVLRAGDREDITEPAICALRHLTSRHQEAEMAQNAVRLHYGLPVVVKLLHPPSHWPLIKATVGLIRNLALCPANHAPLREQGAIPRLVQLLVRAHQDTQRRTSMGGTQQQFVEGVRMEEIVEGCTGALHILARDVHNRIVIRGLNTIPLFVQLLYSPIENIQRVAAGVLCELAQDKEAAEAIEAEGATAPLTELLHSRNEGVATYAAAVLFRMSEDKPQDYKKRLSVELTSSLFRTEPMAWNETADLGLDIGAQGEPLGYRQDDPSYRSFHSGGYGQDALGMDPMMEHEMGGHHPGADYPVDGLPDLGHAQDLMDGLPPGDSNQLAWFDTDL
In words: Fluorescence polarization IC50 (beta-catenin / 5FAM-TCF4 10-53 competition). In kind it is binding.

The nature of a further data set: CHI Log D procedure. In kind it is physicochemical. The note with it: for chromatographic logD: pH 7.4, CHI Log D; for CHI Log D: pH 7.4.
The mark [2] stands for this setting: fluorescence polarization, read-out: beta-Catenin FP IC50.

Where two headings read alike, the source gives them in different places.

For `CC(=O)N1CCC[C@]12CC=CCCCC1(CCCC=CCCCCCC[C@@](C)(C(=O)N[C@@H](Cc3cccc(F)c3)C(=O)N[C@@H](Cc3csc4ccccc34)C(=O)N[C@@H](CCC(N)=O)C(N)=O)NC(=O)[C@H](C(C)C)NC(=O)[C@H](Cc3ccccc3)NC(=O)[C@H](C)NC(=O)[C@H](C)NC(=O)[C@H](Cc3cn(C)cn3)NC(=O)[C@H](CC(=O)O)NC1=O)NC(=O)[C@H](C)NC(=O)[C@H](CC(=O)O)NC2=O` (stereo partly drawn) [I-403, Ac-PL3-Asp-Ala-B5-Asp-1meH-Ala-Ala-Phe-Val-S8-3FF-BztA-Gln-NH2], the IC50 in data set [1] (setting [2]) amounted to 2.13 µM. In addition, the chromatographic logD in “CHI Log D procedure” came out at 2.87.
For the compound `CC(=O)N1CCC[C@]12CC=CCCCC1(CCCC=CCCCCCC[C@@](C)(C(=O)N[C@@H](Cc3cccc(F)c3)C(=O)N[C@@H](Cc3csc4ccccc34)C(=O)N[C@@H](CCC(N)=O)C(N)=O)NC(=O)[C@H](CCC(N)=O)NC(=O)[C@H](Cc3cccc(C)c3)NC(=O)[C@H](C)NC(=O)[C@H](C)NC(=O)[C@H](CN(CC(=O)O)CC(F)(F)F)NC(=O)[C@H](CC(=O)O)NC1=O)NC(=O)[C@H](C)NC(=O)[C@H](CC(=O)O)NC2=O` (stereo partly drawn) [I-404, Ac-PL3-Asp-Ala-B5-Asp-TfeGA-Ala-Ala-3MeF-Gln-S8-3FF-BztA-Gln-NH2], the IC50 in data set [1] (setting [2]) was found to be 1.85 µM. This compound had a chromatographic logD in “CHI Log D procedure” of 2.4.
For `CC(=O)N1CCC[C@]12CC=CCCCC1(CCCC=CCOC(=O)N(C)CCC[C@@](C)(C(=O)N[C@@H](Cc3cccc(F)c3)C(=O)N[C@@H](Cc3csc4ccccc34)C(=O)N[C@@H](CCC(N)=O)C(N)=O)NC(=O)[C@H](CCC(N)=O)NC(=O)[C@H](Cc3cccc(C)c3)NC(=O)[C@H](C)NC(=O)[C@H](C)NC(=O)[C@H](CN(CC(=O)O)CC(F)(F)F)NC(=O)[C@H](CC(=O)O)NC1=O)NC(=O)[C@H](C)NC(=O)[C@H](CC(=O)O)NC2=O` (stereo partly drawn) [I-405, Ac-PL3-Asp-Ala-B5-Asp-TfeGA-Ala-Ala-3MeF-Gln-SeN-3FF-BztA-Gln-NH2], in that order: 3.82 µM and 1.72.
For `CC[C@H](C)[C@@H]1NC(=O)[C@H](CC(=O)O)NC(=O)[C@]2(CC=CCCCC3(CCCC=CCCCCCC[C@@](C)(C(=O)N[C@@H](Cc4cccc(F)c4)C(=O)N[C@@H](Cc4csc5ccccc45)C(=O)N[C@@H](CCC(N)=O)C(N)=O)NC(=O)[C@H](CCC(N)=O)NC(=O)[C@H](Cc4cccs4)NC(=O)[C@H](C)NC(=O)[C@H](C)NC(=O)[C@H](CCC(=O)O)NC(=O)[C@H](CC(=O)O)NC3=O)NC1=O)CCCN2C(C)=O` (stereo partly drawn) [I-412, Ac-PL3-Asp-Ile-B5-Asp-Glu-Ala-Ala-2Thi-Gln-S8-3FF-BztA-Gln-NH2], in that order: 0.092 µM and 2.65.
As for `CC(=O)N1CCC[C@]12CC=CCCCC1(CCCC=CCCCCCC[C@@](C)(C(=O)N[C@@H](Cc3ccccc3)C(=O)N[C@@H](Cc3csc4ccccc34)C(=O)N[C@@H](Cc3c[nH]cn3)C(N)=O)NC(=O)[C@H](CCC(N)=O)NC(=O)[C@H](Cc3ccccc3)NC(=O)[C@H](C)NC(=O)[C@H](C)NC(=O)[C@H](CCC(=O)O)NC(=O)[C@H](CC(=O)O)NC1=O)NC(=O)[C@H](C)NC(=O)[C@H](CC(=O)O)NC2=O` (stereo partly drawn) [I-419, Ac-PL3-Asp-Ala-B5-Asp-Glu-Ala-Ala-Phe-Gln-S8-Phe-BztA-His-NH2], the IC50 in data set [1] (setting [2]) and in data set [1] (read-out: FP EC50) was 0.023 µM throughout. Also, the “CHI Log D” value in “CHI Log D procedure” was 2.114.
`CC(=O)N1CCC[C@]12CC=CCCCC1(CCCC=CCCCCCC[C@@](C)(C(=O)N[C@@H](Cc3cccc(F)c3)C(=O)N[C@@H](Cc3csc4ccccc34)C(=O)N[C@@H](Cc3c[nH]cn3)C(N)=O)NC(=O)[C@H](CCC(N)=O)NC(=O)[C@H](Cc3ccsc3)NC(=O)[C@H](C)NC(=O)[C@H](C)NC(=O)[C@H](CCC(=O)O)NC(=O)[C@H](CC(=O)O)NC1=O)NC(=O)[C@H](C)NC(=O)[C@H](CC(=O)O)NC2=O` (stereo partly drawn) [I-430, Ac-PL3-Asp-Ala-B5-Asp-Glu-Ala-Ala-3Thi-Gln-S8-3FF-BztA-His-NH2]: in data set [1] (setting [2]), the IC50 was found to be 0.154 µM. For the same compound, in the data set “CHI Log D procedure”, the chromatographic logD was 2.13.
For the compound `CC(=O)N1CCC[C@]12CC=CCCCC1(CCCC=CCCCCCC[C@@](C)(C(=O)N[C@@H](Cc3ccccc3)C(=O)N[C@@H](Cc3csc4ccccc34)C(=O)N[C@@H](CCC(N)=O)C(N)=O)NC(=O)[C@H](CC(N)=O)NC(=O)[C@H](Cc3ccccc3F)NC(=O)[C@H](C)NC(=O)[C@H](C)NC(=O)[C@H](CCC(=O)O)NC(=O)[C@H](CC(=O)O)NC1=O)NC(=O)[C@H](C)NC(=O)[C@H](CC(=O)O)NC2=O` (stereo partly drawn) [I-453, Ac-PL3-Asp-Ala-B5-Asp-Glu-Ala-Ala-2FF-Asn-S8-Phe-BztA-Gln-NH2], in data set [1] (setting [2]), the IC50 was determined as 1.55 µM. In “CHI Log D procedure”, the chromatographic logD amounted to 2.01.
For `CC(=O)N1CCC[C@]12CC=CCCCC1(CCCC=CCCCCCC[C@@](C)(C(=O)N[C@@H](Cc3ccccc3)C(=O)N[C@@H](Cc3csc4ccccc34)C(=O)N[C@@H](CCC(N)=O)C(N)=O)NC(=O)[C@H](CC(N)=O)NC(=O)[C@H](Cc3cccc(F)c3)NC(=O)[C@H](C)NC(=O)[C@H](C)NC(=O)[C@H](CCC(=O)O)NC(=O)[C@H](CC(=O)O)NC1=O)NC(=O)[C@H](C)NC(=O)[C@H](CC(=O)O)NC2=O` (stereo partly drawn) [I-454, Ac-PL3-Asp-Ala-B5-Asp-Glu-Ala-Ala-3FF-Asn-S8-Phe-BztA-Gln-NH2], in that order: 0.125 µM and 2.05.
For `CC(=O)N1CCC[C@]12CC=CCCCC1(CCCC=CCCCCCC[C@@](C)(C(=O)N[C@@H](Cc3ccccc3)C(=O)N[C@@H](Cc3csc4ccccc34)C(=O)N[C@@H](CCC(N)=O)C(N)=O)NC(=O)[C@H](CC(N)=O)NC(=O)[C@H](Cc3ccc(F)cc3)NC(=O)[C@H](C)NC(=O)[C@H](C)NC(=O)[C@H](CCC(=O)O)NC(=O)[C@H](CC(=O)O)NC1=O)NC(=O)[C@H](C)NC(=O)[C@H](CC(=O)O)NC2=O` (stereo partly drawn) [I-455, Ac-PL3-Asp-Ala-B5-Asp-Glu-Ala-Ala-4FF-Asn-S8-Phe-BztA-Gln-NH2], in that order: 0.0835 µM and 2.04.
For the compound `CC(=O)N1CCC[C@]12CC=CCCCC1(CCCC=CCCCCCC[C@@](C)(C(=O)N[C@@H](Cc3ccccc3)C(=O)N[C@@H](Cc3csc4ccccc34)C(=O)N[C@@H](CCC(N)=O)C(N)=O)NC(=O)[C@H](CC(N)=O)NC(=O)[C@H](Cc3ccccc3C)NC(=O)[C@H](C)NC(=O)[C@H](C)NC(=O)[C@H](CCC(=O)O)NC(=O)[C@H](CC(=O)O)NC1=O)NC(=O)[C@H](C)NC(=O)[C@H](CC(=O)O)NC2=O` (stereo partly drawn) [I-456, Ac-PL3-Asp-Ala-B5-Asp-Glu-Ala-Ala-2MeF-Asn-S8-Phe-BztA-Gln-NH2], the IC50 in data set [1] (setting [2]) and in data set [1] (read-out: FP EC50) was 2.17 µM in each case. Besides, the “CHI Log D” value in the data set “CHI Log D procedure” is recorded as 2.0045.
For `CC(=O)N1CCC[C@]12CC=CCCCC1(CCCC=CCCCCCC[C@@](C)(C(=O)N[C@@H](Cc3ccccc3)C(=O)N[C@@H](Cc3csc4ccccc34)C(=O)N[C@@H](CCC(N)=O)C(N)=O)NC(=O)[C@H](CC(N)=O)NC(=O)[C@H](Cc3ccccc3C)NC(=O)[C@H](C)NC(=O)[C@H](C)NC(=O)[C@H](CCC(=O)O)NC(=O)[C@H](CC(=O)O)NC1=O)NC(=O)[C@H](C)NC(=O)[C@H](CC(=O)O)NC2=O` (stereo partly drawn) [I-457, Ac-PL3-Asp-Ala-B5-Asp-Glu-Ala-Ala-2MeF-Asn-S8-Phe-BztA-Gln-NH2], the IC50 in data set [1] (setting [2]) and in data set [1] (read-out: FP EC50) was 1.44 µM each time. Also, the “CHI Log D” value in “CHI Log D procedure” is recorded as 2.0242.
Take `CC(=O)N1CCC[C@]12CC=CCCCC1(CCCC=CCCCCCC[C@@](C)(C(=O)N[C@@H](Cc3ccccc3)C(=O)N[C@@H](Cc3csc4ccccc34)C(=O)N[C@@H](CCC(N)=O)C(N)=O)NC(=O)[C@H](CC(N)=O)NC(=O)[C@H](Cc3cccc(C)c3)NC(=O)[C@H](C)NC(=O)[C@H](C)NC(=O)[C@H](CCC(=O)O)NC(=O)[C@H](CC(=O)O)NC1=O)NC(=O)[C@H](C)NC(=O)[C@H](CC(=O)O)NC2=O` (stereo partly drawn) [I-458, Ac-PL3-Asp-Ala-B5-Asp-Glu-Ala-Ala-3MeF-Asn-S8-Phe-BztA-Gln-NH2]: the IC50 in data set [1] (setting [2]) was found to be 0.102 µM. Moreover, the chromatographic logD in “CHI Log D procedure” stood at 2.07.
For `CC(=O)N1CCC[C@]12CC=CCCCC1(CCCC=CCCCCCC[C@@](C)(C(=O)N[C@@H](Cc3ccccc3)C(=O)N[C@@H](Cc3csc4ccccc34)C(=O)N[C@@H](CCC(N)=O)C(N)=O)NC(=O)[C@H](CC(N)=O)NC(=O)[C@H](Cc3ccc(C)cc3)NC(=O)[C@H](C)NC(=O)[C@H](C)NC(=O)[C@H](CCC(=O)O)NC(=O)[C@H](CC(=O)O)NC1=O)NC(=O)[C@H](C)NC(=O)[C@H](CC(=O)O)NC2=O` (stereo partly drawn) [I-459, Ac-PL3-Asp-Ala-B5-Asp-Glu-Ala-Ala-4MeF-Asn-S8-Phe-BztA-Gln-NH2], in that order: 0.183 µM and 2.06.
For `CC(=O)N1CCC[C@]12CC=CCCCC1(CCCC=CCCCCCC[C@@](C)(C(=O)N[C@@H](Cc3ccccc3)C(=O)N[C@@H](Cc3csc4ccccc34)C(=O)N[C@@H](CCC(N)=O)C(N)=O)NC(=O)[C@H](CC(N)=O)NC(=O)[C@H](Cc3ccco3)NC(=O)[C@H](C)NC(=O)[C@H](C)NC(=O)[C@H](CCC(=O)O)NC(=O)[C@H](CC(=O)O)NC1=O)NC(=O)[C@H](C)NC(=O)[C@H](CC(=O)O)NC2=O` (stereo partly drawn) [I-460, Ac-PL3-Asp-Ala-B5-Asp-Glu-Ala-Ala-2FurA-Asn-S8-Phe-BztA-Gln-NH2], in that order: 0.195 µM and 1.99.
